Reference: PubChem BioAssay AID1845219 (Molecular Pharmacology Branch, DTP, NCI, 2023)

Test system: SYO-1 tumor spheroids, viability % test/control
Assay: Anticancer human tumor SYO-1 cell line growth inhibition;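 also: spheroids exposed to agents for 7 days before viability read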;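 as to viability, T/C: 100% = DMSO vehicle control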
Conditions: spheroids with HUVEC and MSC; for IC50: curve of first compound; for viability, T/C: stronger effect = lower value
Summary of the method: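 Complex tumor spheroids combined malignant cells with endothelial cells and mesenchymal stem cells. DNA-damaging drugs and DNA repair inhibitors were tested alone and in combination, at half-log dilutions down from clinical Cmax (top 10 microM if Cmax unknown), 0.25% DMSO final.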

[1] = second compound 30 pM, first compound 0.0316 µM
[2] = second compound 30 pM, first compound 0.1 µM
[3] = second compound 30 pM, first compound 0.316 µM
[4] = second compound 30 pM, first compound 1 µM
[5] = second compound 30 pM, first compound 3.16 µM
[6] = second compound 30 pM, first compound 10 µM
[7] = second compound 94.9 pM, first compound 0.0316 µM
[8] = second compound 94.9 pM, first compound 0.1 µM
[9] = second compound 94.9 pM, first compound 0.316 µM
[10] = second compound 94.9 pM, first compound 1 µM
[11] = second compound 94.9 pM, first compound 3.16 µM
[12] = second compound 94.9 pM, first compound 10 µM
[13] = second compound 0.0003 µM, first compound 0.0316 µM
[14] = second compound 0.0003 µM, first compound 0.1 µM
[15] = second compound 0.0003 µM, first compound 0.316 µM
[16] = second compound 0.0003 µM, first compound 1 µM
[17] = second compound 0.0003 µM, first compound 3.16 µM
[18] = second compound 0.0003 µM, first compound 10 µM
[19] = second compound 0.000949 µM, first compound 0.0316 µM
[20] = second compound 0.000949 µM, first compound 0.1 µM
[21] = second compound 0.000949 µM, first compound 0.316 µM
[22] = second compound 0.000949 µM, first compound 1 µM
[23] = second compound 0.000949 µM, first compound 3.16 µM
[24] = second compound 0.000949 µM, first compound 10 µM
[25] = second compound 0.003 µM, first compound 0.0316 µM
[26] = second compound 0.003 µM, first compound 0.1 µM
[27] = second compound 0.003 µM, first compound 0.316 µM
[28] = second compound 0.003 µM, first compound 1 µM
[29] = second compound 0.003 µM, first compound 3.16 µM
[30] = second compound 0.003 µM, first compound 10 µM

`CC(C)n1c(=O)n(C)c2cnc3cc(F)c(-c4ccc(OCCCN5CCCCC5)nc4)cc3c21` + COc1cc2c(cc1O)CCNC21CSC2c3c(OC(C)=O)c(C)c4c(c3C(COC1=O)N1C(O)C3Cc5cc(C)c(OC)c(O)c5C(C21)N3C)OCO4 showed an IC50 (second compound 30 pM) of 7380 nM, an IC50 (second compound 94.9 pM) of under 31.6 nM and an IC50 (second compound 0.0003 µM) of under 31.6 nM. For the same molecule, the IC50 (second compound 0.000949 µM) was under 31.6 nM, the IC50 (second compound 0.003 µM) was under 31.6 nM and the viability, T/C [1] was 99.7%. For the same molecule, the viability, T/C [2] was 97.7%, the viability, T/C [3] was 98% and the viability, T/C [4] was 99.4%. It also gave a viability, T/C [5] of 89.7%, a viability, T/C [6] of 35.5% and a viability, T/C [7] of 37.6%. For the same molecule, the viability, T/C [8] was 33.4%, the viability, T/C [9] was 43.2% and the viability, T/C [10] was 52.4%. It also gave a viability, T/C [11] of 50%, a viability, T/C [12] of 21.6% and a viability, T/C [13] of 2.89%. The viability, T/C [14] was 2.78%, the viability, T/C [15] was 3.15% and the viability, T/C [16] was 3.23%. The viability, T/C [17] was 2.46%, the viability, T/C [18] was 0.62% and the viability, T/C [19] was 0.98%. The viability, T/C [20] was 1.01%, the viability, T/C [21] was 0.98% and the viability, T/C [22] was 1.04%. For the same molecule, the viability, T/C [23] was 0.96%, the viability, T/C [24] was 0.32% and the viability, T/C [25] was 0.12%. The viability, T/C [26] was 0.12%, the viability, T/C [27] was 0.12% and the viability, T/C [28] was 0.13%. For the same molecule, the viability, T/C [29] was 0.13% and the viability, T/C [30] was 0.22%.

`COc1ccc([C@@H](O)c2cc(-c3ncnc4cc(N5CCOCC5)ccc34)c(F)cc2Cl)nn1` + COc1cc2c(cc1O)CCNC21CSC2c3c(OC(C)=O)c(C)c4c(c3C(COC1=O)N1C(O)C3Cc5cc(C)c(OC)c(O)c5C(C21)N3C)OCO4 showed an IC50 (second compound 30 pM) of 3170 nM, an IC50 (second compound 94.9 pM) of 772 nM and an IC50 (second compound 0.0003 µM) of under 31.6 nM. It also gave an IC50 (second compound 0.000949 µM) of under 31.6 nM, an IC50 (second compound 0.003 µM) of under 31.6 nM and a viability, T/C [1] of 104%. The viability, T/C [2] was 103%, the viability, T/C [3] was 105% and the viability, T/C [4] was 102%. It also gave a viability, T/C [5] of 50.1%, a viability, T/C [6] of 2.83% and a viability, T/C [7] of 97.7%. The viability, T/C [8] was 103%, the viability, T/C [9] was 94.9% and the viability, T/C [10] was 37%. It also gave a viability, T/C [11] of 5.43%, a viability, T/C [12] of 7.51% and a viability, T/C [13] of 12.2%. It also gave a viability, T/C [14] of 9.57%, a viability, T/C [15] of 3.06% and a viability, T/C [16] of 1.34%. For the same molecule, the viability, T/C [17] was 0.26%, the viability, T/C [18] was 0.17% and the viability, T/C [19] was 0.88%. For the same molecule, the viability, T/C [20] was 0.86%, the viability, T/C [21] was 0.54% and the viability, T/C [22] was 0.23%. It also gave a viability, T/C [23] of 0.03%, a viability, T/C [24] of 0.15% and a viability, T/C [25] of 0.12%. For the same molecule, the viability, T/C [26] was 0.12%, the viability, T/C [27] was 0.1% and the viability, T/C [28] was 0.24%. It also gave a viability, T/C [29] of 0.38% and a viability, T/C [30] of 1.5%.

With `O=C(c1cc(Cc2n[nH]c(=O)c3ccccc23)ccc1F)N1CCN(C(=O)C2CC2)CC1` + Cn1nnc2c(C(N)=O)ncn2c1=O the IC50 (second compound 1 µM) was 1660 nM, the IC50 (second compound 3.16 µM) was 1620 nM and the IC50 (second compound 10 µM) was 677 nM. For the same molecule, the IC50 (second compound 31.6 µM) was 155 nM, the IC50 (second compound 100 µM) was under 94.9 nM and the viability, T/C (second compound 1 µM, first compound 0.0949 µM) was 103%. The viability, T/C (second compound 1 µM, first compound 0.3 µM) was 96.2%, the viability, T/C (second compound 1 µM, first compound 0.949 µM) was 88.9% and the viability, T/C (second compound 1 µM, first compound 3 µM) was 9.23%. The viability, T/C (second compound 1 µM, first compound 9.49 µM) was 2.81%, the viability, T/C (second compound 1 µM, first compound 30 µM) was 1.98% and the viability, T/C (second compound 3.16 µM, first compound 0.0949 µM) was 103%. The viability, T/C (second compound 3.16 µM, first compound 0.3 µM) was 94.3%, the viability, T/C (second compound 3.16 µM, first compound 0.949 µM) was 88.4% and the viability, T/C (second compound 3.16 µM, first compound 3 µM) was 6.01%. The viability, T/C (second compound 3.16 µM, first compound 9.49 µM) was 2.08%, the viability, T/C (second compound 3.16 µM, first compound 30 µM) was 1.94% and the viability, T/C (second compound 10 µM, first compound 0.0949 µM) was 103%. For the same molecule, the viability, T/C (second compound 10 µM, first compound 0.3 µM) was 94.6%, the viability, T/C (second compound 10 µM, first compound 0.949 µM) was 31.6% and the viability, T/C (second compound 10 µM, first compound 3 µM) was 2.83%. The viability, T/C (second compound 10 µM, first compound 9.49 µM) was 1.83%, the viability, T/C (second compound 10 µM, first compound 30 µM) was 1.82% and the viability, T/C (second compound 31.6 µM, first compound 0.0949 µM) was 76.8%. It also gave a viability, T/C (second compound 31.6 µM, first compound 0.3 µM) of 13.5%, a viability, T/C (second compound 31.6 µM, first compound 0.949 µM) of 3.35% and a viability, T/C (second compound 31.6 µM, first compound 3 µM) of 2.28%. For the same molecule, the viability, T/C (second compound 31.6 µM, first compound 9.49 µM) was 2.18%, the viability, T/C (second compound 31.6 µM, first compound 30 µM) was 1.77% and the viability, T/C (second compound 100 µM, first compound 0.0949 µM) was 3.25%. It also gave a viability, T/C (second compound 100 µM, first compound 0.3 µM) of 2.69%, a viability, T/C (second compound 100 µM, first compound 0.949 µM) of 2.42% and a viability, T/C (second compound 100 µM, first compound 3 µM) of 2.49%. It also gave a viability, T/C (second compound 100 µM, first compound 9.49 µM) of 1.81% and a viability, T/C (second compound 100 µM, first compound 30 µM) of 1.75%.
